Results taken from PMC9289672, “Optimization of Antibacterial Activity in Tibetan Swine α-Helix Peptide TP by Site-Directed Mutagenesis” (Frontiers in Microbiology, 2022).
Where no end group is shown, it is not given here.

Key:
E. coli 25922 [1] = assay: In vivo efficacy assay (peritonitis-sepsis model); details: C57BL/6 mice, i.p. E. coli 25922; peptide 5 mg/kg i.p. at 0 and 1 h, colistin 1 mg/kg; 12 h after infection; vs infected group, p < 0.05
Protocol: A total of 32 female C57BL/6 mice (weighing about 20 g) aged from 6 to 8 weeks were selected. The mice in each group were divided into 4 groups by blind method (n = 8): […] (d) treatment group (E. coli 25922 + Colistin). Mice in control group were intraperitoneally injected with 100 μl normal saline, and mice in other groups were intraperitoneally injected with 100 μl (~1 × 10^8 CFU/ml) diluted bacterial solution. The peptide treatment group was intraperitoneally injected with TP(i+4) 1&2&5 (5 mg/kg) at 0 and 1 h after infection, and the control group and antibiotic treatment group were injected with normal saline and colistin (1 mg/kg), respectively. The mice were then euthanized 12 h after infection. After weighing liver, lung, spleen, and kidney, the bacterial load of each organ was determined, and the histopathological changes in the organ sections were analyzed by H&E staining. Serum levels of inflammatory factors IL-6, IL-1β, and TNF-α were detected by ELISA kits (Shanghai Jinma).

E. coli 25922 [2] = assay: Drug resistance assessment (continuous culture at sub-MIC); format: cell-based, Escherichia coli; details: E. coli 25922, serial passage at sub-MIC
Protocol: Continuous culture method was used to evaluate the drug resistance of peptides. Colistin was used as model antibiotic to test the resistance of E. coli 25922. First, minimum inhibitory concentration (MIC) was determined for peptide and Colistin Next, the bacteria with each sub-MIC concentration were diluted to 2 × 10^5 CFU/ml with MHB for the MIC determination of the next passage. The process was repeated 30 times.

all strains in Table 2 = assay: Geometric mean of MIC and therapeutic index; format: cell-based; details: MHC/GM; 128 μm used when 50% hemolysis not observed at 128 μm
Procedure, shortened: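 Exponential-phase bacteria were diluted to 2 × 10^5 CFU/ml in MHB and mixed with an equal volume of peptide, giving final peptide 1–128 µM; 18–24 h at 37 °C, growth read at OD492, three independent assays. GM is the geometric mean of MICs across strains; SI = MHC/GM.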

[3] = system: IPEC-J2 and HEK 293T cells
Protocol: (§4) The cytotoxicity of each peptide was assessed with IPEC-J12 and HEK 293T cells. […] Each trial was conducted two times in parallel. A total of three independent assays were carried out.

[4] = system: Escherichia coli ATCC 25922
Procedure, shortened: (§1)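 Broth microdilution in MHB with exponential-phase bacteria at 2 × 10^5 CFU/ml before mixing 1:1 with peptide (final 1–128 μM). Growth read as OD492 after 18–24 h at 37°C; three independent assays, each in duplicate.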

[5] = system: Staphylococcus epidermidis ATCC 12228
Procedure, shortened: as §1

[6] = system: Salmonella typhimurium ATCC 14028
Procedure, shortened: as §1

[7] = system: Methicillin-resistant Staphylococcus aureus (MRSA) 43300; details: Methicillin-resistant 43300
Procedure, shortened: as §1

[8] = system: Pseudomonas aeruginosa PAO1
Procedure, shortened: as §1

[9] = system: Staphylococcus aureus ATCC 25923
Procedure, shortened: as §1

[10] = system: Salmonella typhimurium C7731; details: MHB, bacteria diluted to 2 × 10^5 CFU/ml, peptide 1-128 μm, 37°C 18-24 h, OD 492 nm; three independent assays, two in parallel
Procedure, shortened: as §1

[11] = system: Pseudomonas aeruginosa ATCC 27853
Procedure, shortened: as §1

Escherichia coli UB1005 = details: MHB, bacteria diluted to 2 × 10^5 CFU/ml, peptide 1-128 μm, 37°C 18-24 h, OD 492 nm; three independent assays, two in parallel
Procedure, shortened: as §1

[12] = system: Enterococcus faecalis ATCC 29212
Procedure, shortened: as §1

[13] = system: Staphylococcus aureus ATCC 29213
Procedure, shortened: as §1

Gram-negative bacteria = assay: Geometric mean of MIC and therapeutic index; format: cell-based; details: MHC/GM; 128 μm used when 50% hemolysis not observed at 128 μm
Procedure, shortened: (§2)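 Broth microdilution in MHB with exponential-phase bacteria diluted to 2 × 10^5 CFU/ml, mixed 1:1 with peptide (final 1–128 μm). Plates were incubated 18–24 h at 37°C and read at OD 492 nm across three independent assays. MICs are expressed as the geometric mean over strains; selectivity index is MHC divided by that geometric mean.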

Gram-positive bacteria = assay: Geometric mean of MIC and therapeutic index; format: cell-based; details: MHC/GM; 128 μm used when 50% hemolysis not observed at 128 μm
Procedure, shortened: as §2

[14] = system: hRBCs (human red blood cells); assay: Hemolytic activity; details: three independent assays, two in parallel
Protocol: as §4

S. aureus 29213 = format: cell-based, Staphylococcus aureus; details: 29213, 4 h
Protocol: (§3) The salt and serum stability of polypeptides were determined by improved MIC method (Lv et al., [2014]). Peptides were incubated with BSA containing different final concentrations of salt ions (150 mM NaCl, 4.5 mM KCl, 6 μm NH4Cl, 8 μm ZnCl2, 1 mM MgCl2, 2 mM CaCl2, and 4 μm FeCl3) (Wang et al., [2018]). To determine the stability of the peptide in serum, peptide was incubated with different proportions of serum (50%, 100%) at 37°C for 4 h. The following steps are the same as those for antimicrobial activity. Each trial was conducted two times in parallel. A total of three independent assays were carried out.

E. coli 25922 [15] = format: cell-based, Escherichia coli; details: 25922, 4 h
Protocol: as §3

Substance | Therapeutic index (TI) / selectivity index (SI), All (all strains in Table 2) | cell viability [3] | MIC, E. coli 25922 [4] [µM] | MIC, S. epidermidis 12228 [5] [µM] | MIC, S. typhimurium 14028 [6] [µM] | MIC, S. aureus 43300 [7] [µM] | MIC, P. aeruginosa PAO1 [8] [µM] | MIC, S. aureus 25923 [9] [µM] | MIC, S. typhimurium 7731 [10] [µM] | MIC, P. aeruginosa 27853 [11] [µM] | MIC, E. coli UB1005 (Escherichia coli UB1005) [µM] | MIC, E. faecalis 29212 [12] [µM] | MIC, S. aureus 29213 [13] [µM] | Therapeutic index (TI), Gram-negative bacteria (Gram-negative bacteria) | Therapeutic index (TI), Gram-positive bacteria (Gram-positive bacteria) | MHC (concentration of peptide that causes hemolysis of 50% of human red blood cells) [14] [µM] | other results
Colistin |  |  |  |  |  |  |  |  |  |  |  |  |  |  |  |  | bacterial load in organs (liver, kidney, spleen, lungs) (E. coli 25922 [1]): significantly reduced; generation at which resistance appeared (E. coli 25922 [2]): sixth generation; increase in MIC values after 30 generations (E. coli 25922 [2]; 30 passages): 256 fold
ASVVKKWTKGWAKLLK-NH2 [TP(i+4) 1&2&6] | 3.89 | ~ 50% | 4 | 64 | 16 | 64 | 8 | 128 | 32 | 32 | 8 | 128 | 64 | 10.08 | 1.50 | >128 | 
ASVVKKLWKGVWKLLK-NH2 [TP(i+4) 1&2&5] | 64.00 | ~ 50% | 1 | 2 | 2 | 2 | 2 | 2 | 4 | 2 | 2 | 2 | 2 | 64.00 | 64.00 | >128 | MIC after incubation with 100% serum (S. aureus 29213): 8 µM; MIC in the presence of Ca2+ (S. aureus 29213): 2 µM; MIC in the presence of Fe3+ (S. aureus 29213): 2 µM; MIC in the presence of K+ (S. aureus 29213): 1 µM; MIC in the presence of Mg2+ (S. aureus 29213): 2 µM; MIC in the presence of NH4+ (S. aureus 29213): 2 µM; MIC in the presence of Na+ (S. aureus 29213): 2 µM; MIC in the presence of Zn2+ (S. aureus 29213): 1 µM; MIC, Control (S. aureus 29213): 2 µM; MIC after incubation with 100% serum (E. coli 25922 [15]): 2 µM; MIC in the presence of Ca2+ (E. coli 25922 [15]): 4 µM; MIC in the presence of Fe3+ (E. coli 25922 [15]): 1 µM; MIC in the presence of K+ (E. coli 25922 [15]): 2 µM; MIC in the presence of Mg2+ (E. coli 25922 [15]): 2 µM; MIC in the presence of NH4+ (E. coli 25922 [15]): 2 µM; MIC in the presence of Na+ (E. coli 25922 [15]): 4 µM; MIC in the presence of Zn2+ (E. coli 25922 [15]): 1 µM; MIC, Control (E. coli 25922 [15]): 1 µM
ASVVKKWWKGWWKLLK-NH2 [TP(i+4) 1&2&5&6] | 13.30 |  | 1 | 8 | 2 | 8 | 4 | 16 | 4 | 4 | 2 | 8 | 8 | 25.40 | 6.96 | 64.00 | 
